Experimental data taken from PMC6522510 (Nature Communications, 2019).
Where two headings read alike, the source gives them in different places.

Experiments:
Test in all cases: Secondary dose-response HTS, Cell Titer Glo; call rule not given here
Type in all cases: cell-based, human
MOLM-13 = test system: MOLM-13
MV4-11 = test system: MV4-11
CHRF288-11 = test system: CHRF288-11
CMK = conditions: CMK; for EC50: Homo sapiens
CMS = test system: CMS
M07e = test system: M07e
ML2 = test system: ML2
U937 = test system: U937
[1] = secondary high-throughput screen, MOLM-13
[2] = secondary high-throughput screen, MV4-11
[3] = secondary high-throughput screen, CHRF288-11
[4] = secondary high-throughput screen
[5] = secondary high-throughput screen, CMS
[6] = secondary high-throughput screen, M07e
[7] = secondary high-throughput screen, ML-2
[8] = secondary high-throughput screen, U937
[9] = Homo sapiens, secondary high-throughput screen, MOLM-13, read-out: average effective concentration, MOLM-13
[10] = Homo sapiens, secondary high-throughput screen, MV4-11, read-out: average effective concentration, MV4-11
[11] = Homo sapiens, HTS, secondary high-throughput screen, CHRF288-11, read-out: average effective concentration, CHRF288-11
[12] = read-out: average effective concentration, CMK
[13] = Homo sapiens, HTS, read-out: average effective concentration, CMS
[14] = Homo sapiens, M-07e, secondary high-throughput screen, M07e, read-out: average effective concentration, M07e
[15] = Homo sapiens, secondary high-throughput screen, ML-2, read-out: average effective concentration, ML-2
[16] = Homo sapiens, U-937, secondary high-throughput screen, U937, read-out: average effective concentration, U937
[17] = secondary high-throughput screen, read-out: average effective concentration, CMK
[18] = Homo sapiens, HTS, secondary high-throughput screen, CMS, read-out: average effective concentration, CMS
[19] = secondary high-throughput screen, CMS, read-out: average effective concentration, CMS
[20] = secondary high-throughput screen, ML-2, read-out: average effective concentration, ML-2

COCCCn1c(N)c(C(=O)NC2CCCC2)c2nc3ccccc3nc21 [CAY10591]
average effective concentration, MOLM-13 (MOLM-13; [1]): Inactive
average effective concentration, MV4-11 (MV4-11; [2]): Inactive
average effective concentration, CHRF288-11 (CHRF288-11; [3]): Inactive
average effective concentration, CMK (CMK; [4]): Inactive
average effective concentration, CMS (CMS; [5]): Inactive
average effective concentration, M07e (M07e; [6]): Inactive
average effective concentration, ML-2 (ML2; [7]): Inactive
average effective concentration, U937 (U937; [8]): Inactive

Cn1cc(-c2[nH]c3cc(NC(=O)[C@H](N)C4CCCCC4)cc4c3c2C=NNC4=O)cn1 [PF-477736]
EC50 (MOLM-13; [9]): 18 nM
EC50 (MV4-11; [10]): 50 nM
EC50 (CHRF288-11; [11]): 1200 nM
EC50 (CMK; [12]): 220 nM
EC50 (CMS; [13]): 6200 nM
EC50 (M07e; [14]): 240 nM
EC50 (ML2; [15]): 28 nM
EC50 (U937; [16]): 100 nM

CC1(COc2ccc3c(c2)ncn3-c2ccc3cccc(N4CCC(N)CC4)c3n2)COC1 [CRENOLANIB]
EC50 (MOLM-13; [9]): 100 nM
EC50 (MV4-11; [10]): 72 nM
EC50 (CHRF288-11; [11]): 770 nM
EC50 (CMK; [12]): 6600 nM
EC50 (CMS; [13]): 8200 nM
EC50 (M07e; [14]): > 10000 nM
EC50 (ML2; [15]): 3600 nM
EC50 (U937; [16]): 5000 nM

C[C@@H](Oc1cc(-c2cnn(C3CCNCC3)c2)cnc1N)c1c(Cl)ccc(F)c1Cl [CRIZOTINIB]
EC50 (MOLM-13; [9]): 3900 nM
EC50 (MV4-11; [10]): 3900 nM
EC50 (CHRF288-11; [11]): 7800 nM
EC50 (CMK; [17]): 4200 nM
EC50 (CMS; [18]): 8300 nM
EC50 (M07e; [14]): > 10000 nM
EC50 (ML2; [15]): 4800 nM
EC50 (U937; [16]): > 10000 nM

O=C(Nc1cc(Cl)cc2c1[nH]c1cnccc12)c1cccnc1 [PS-1145]
average effective concentration, MOLM-13 (MOLM-13; [1]): Inactive
average effective concentration, MV4-11 (MV4-11; [2]): Inactive
average effective concentration, CHRF288-11 (CHRF288-11; [3]): Inactive
average effective concentration, CMK (CMK; [4]): Inactive
average effective concentration, CMS (CMS; [5]): Inactive
average effective concentration, M07e (M07e; [6]): Inactive
average effective concentration, ML-2 (ML2; [7]): Inactive
average effective concentration, U937 (U937; [8]): Inactive

O=c1cc(N2CCOCC2)oc2c1ccc1ccccc12 [NU 7026]
average effective concentration, MOLM-13 (MOLM-13; [1]): Inactive
average effective concentration, MV4-11 (MV4-11; [2]): Inactive
average effective concentration, CHRF288-11 (CHRF288-11; [3]): Inactive
average effective concentration, CMK (CMK; [4]): Inactive
average effective concentration, CMS (CMS; [5]): Inactive
average effective concentration, M07e (M07e; [6]): Inactive
average effective concentration, ML-2 (ML2; [7]): Inactive
average effective concentration, U937 (U937; [8]): Inactive

COc1cc2c(NC3CCN(C)CC3)nc(N3CCCN(C)CC3)nc2cc1OCCOCCN(C)C [UNC0321]
average effective concentration, MOLM-13 (MOLM-13; [1]): Inactive
average effective concentration, MV4-11 (MV4-11; [2]): Inactive
average effective concentration, CHRF288-11 (CHRF288-11; [3]): Inactive
average effective concentration, CMK (CMK; [4]): Inactive
average effective concentration, CMS (CMS; [5]): Inactive
average effective concentration, M07e (M07e; [6]): Inactive
average effective concentration, ML-2 (ML2; [7]): Inactive
average effective concentration, U937 (U937; [8]): Inactive

COC(=O)[C@]1(C)CC[C@]2(C)CC[C@]3(C)C4=CC=C5C(=CC(=O)C(O)=C5C)[C@]4(C)CC[C@@]3(C)[C@@H]2C1 [PRISTIMERIN]
average effective concentration, MOLM-13 (MOLM-13; [1]): Inactive
average effective concentration, MV4-11 (MV4-11; [2]): Inactive
EC50 (CHRF288-11; [11]): 240 nM
EC50 (CMK; [17]): 240 nM
EC50 (CMS; [18]): 1500 nM
EC50 (M07e; Homo sapiens, M-07e, secondary high-throughput screen, […], read-out: average effective concentration, M07e): 4600 nM
EC50 (ML2; [15]): 120 nM
EC50 (U937; [16]): 800 nM

CC[C@@]1(O)C(=O)OCc2c1cc1n(c2=O)Cc2cc3c(CN(C)C)c(O)ccc3nc2-1 [TOPOTECAN]
EC50 (MOLM-13; [9]): 120 nM
EC50 (MV4-11; [10]): 170 nM
EC50 (CHRF288-11; [11]): 500 nM
EC50 (CMK; [17]): 470 nM
EC50 (CMS; [18]): 7200 nM
EC50 (M07e; [14]): 1700 nM
EC50 (ML2; [15]): 250 nM
EC50 (U937; [16]): 690 nM

Cc1ccc(C(=O)Nc2ccc(CN3CCN(C)CC3)c(C(F)(F)F)c2)cc1C#Cc1cnc2cccnn12 [PONATINIB]
EC50 (MOLM-13; Homo sapiens, MOLM-13, read-out: average effective concentration, MOLM-13): 17 nM
EC50 (MV4-11; Homo sapiens, MV4-11, read-out: average effective concentration, MV4-11): 11 nM
EC50 (CHRF288-11; Homo sapiens, HTS, read-out: average effective concentration, CHRF288-11): 1000 nM
EC50 (CHRF288-11; read-out: average effective concentration, CHRF288-11): 980 nM
EC50 (CMK; [12]): 1600 nM
EC50 (CMS; [13]): 6700 nM
EC50 (M07e; Homo sapiens, M-07e, read-out: average effective concentration, M07e): 7000 nM
EC50 (ML2; Homo sapiens, ML-2, read-out: average effective concentration, ML-2): 5300 nM
EC50 (U937; Homo sapiens, U-937, read-out: average effective concentration, U937): 2500 nM

C[C@@H]1CN(CC(=O)Nc2ccc3c(c2)Cc2cccc(-c4cc(=O)cc(N5CCOCC5)o4)c2S3)C[C@H](C)O1 [KU60019]
average effective concentration, MOLM-13 (MOLM-13; [1]): Inactive
average effective concentration, MV4-11 (MV4-11; [2]): Inactive
average effective concentration, CHRF288-11 (CHRF288-11; [3]): Inactive
average effective concentration, CMK (CMK; [4]): Inactive
EC50 (CMS; [18]): > 10000 nM
average effective concentration, M07e (M07e; [6]): Inactive
average effective concentration, ML-2 (ML2; [7]): Inactive
average effective concentration, U937 (U937; [8]): Inactive

EB-47
average effective concentration, MOLM-13 (MOLM-13; [1]): Inactive
average effective concentration, MV4-11 (MV4-11; [2]): Inactive
average effective concentration, CHRF288-11 (CHRF288-11; [3]): Inactive
average effective concentration, CMK (CMK; [4]): Inactive
average effective concentration, CMS (CMS; [5]): Inactive
average effective concentration, M07e (M07e; [6]): Inactive
average effective concentration, ML-2 (ML2; [7]): Inactive
average effective concentration, U937 (U937; [8]): Inactive

CC(C)=CCC[C@]1(C)C=Cc2c(O)c3c(c(CC=C(C)C)c2O1)O[C@]12C(=C[C@@H]4C[C@H]1C(C)(C)O[C@@]2(C/C=C(/C)C(=O)O)C4=O)C3=O [Gambogic acid, reference compound]
EC50 (MOLM-13; Homo sapiens, MOLM-13, secondary HTS, 72 h, average of triplicate, read-out: EC50 MOLM-13): 190 nM
EC50 (MV4-11; Homo sapiens, MV4-11, secondary HTS, 72 h, average of triplicate, read-out: EC50 MV4-11): 170 nM
EC50 (CHRF288-11; Homo sapiens, secondary HTS, 72 h, average of triplicate, read-out: EC50 CHRF288-11): 220 nM
EC50 (CMK; secondary HTS, 72 h, average of triplicate, read-out: EC50 CMK): 360 nM
EC50 (CMS; Homo sapiens, secondary HTS, 72 h, average of triplicate, read-out: EC50 CMS): 260 nM
EC50 (M07e; Homo sapiens, M-07e, secondary HTS, 72 h, average of triplicate, read-out: EC50 M07e): 240 nM
EC50 (ML2; Homo sapiens, ML-2, secondary HTS, 72 h, average of triplicate, read-out: EC50 ML2): 150 nM
EC50 (U937; Homo sapiens, U-937, secondary HTS, 72 h, average of triplicate, read-out: EC50 U937): 190 nM

CO[C@@]12[C@H](COC(N)=O)C3=C(C(=O)C(C)=C(N)C3=O)N1C[C@@H]1N[C@@H]12 [MITOMYCIN C]
EC50 (MOLM-13; [9]): 2800 nM
EC50 (MV4-11; [10]): 4100 nM
EC50 (CHRF288-11; [11]): 750 nM
EC50 (CMK; [17]): 770 nM
EC50 (CMS; [18]): 10000 nM
EC50 (M07e; [14]): 9400 nM
EC50 (ML2; [15]): 2400 nM
EC50 (U937; [16]): 4400 nM

LB 42708
EC50 (MOLM-13; secondary high-throughput screen, MOLM-13, read-out: average effective concentration, MOLM-13): 2500 nM
EC50 (MV4-11; secondary high-throughput screen, MV4-11, read-out: average effective concentration, MV4-11): 5000 nM
average effective concentration, CHRF288-11 (CHRF288-11; [3]): Inactive
average effective concentration, CMK (CMK; [4]): Inactive
EC50 (CMS; [19]): 3400 nM
average effective concentration, M07e (M07e; [6]): Inactive
EC50 (ML2; [20]): 2300 nM
average effective concentration, U937 (U937; [8]): Inactive

AZ-20
average effective concentration, MOLM-13 (MOLM-13; [1]): Inactive
average effective concentration, MV4-11 (MV4-11; [2]): Inactive
EC50 (CHRF288-11; secondary high-throughput screen, CHRF288-11, read-out: average effective concentration, CHRF288-11): 2500 nM
average effective concentration, CMK (CMK; [4]): Inactive
EC50 (CMS; [19]): 600 nM
EC50 (M07e; secondary high-throughput screen, M07e, read-out: average effective concentration, M07e): 200 nM
EC50 (ML2; [20]): 30 nM
EC50 (U937; secondary high-throughput screen, U937, read-out: average effective concentration, U937): 4700 nM
